According to PubChem BioAssay (NCI):
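Briefly, cells in 96-well plates were exposed to five compound concentrations for 48 h, and endpoints were estimated by linear interpolation. TGI: total growth inhibition.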

Tests used:
Experiment in all cases: DTP human tumour cell line panel, 48 h
CCRF-CEM leukemia = system: CCRF-CEM leukemia
EKVX NSCLC = system: EKVX NSCLC
SW-620 colon = system: SW-620 colon
SNB-19 CNS = system: SNB-19 CNS
MDA-N = system: MDA-N
RPMI-8226 leukemia = system: RPMI-8226 leukemia
A498 renal = system: A498 renal
M14 melanoma = system: M14 melanoma
LOX IMVI melanoma = system: LOX IMVI melanoma
PC-3 prostate = system: PC-3 prostate
HL-60(TB) leukemia = system: HL-60(TB) leukemia
K-562 leukemia = system: K-562 leukemia
MDA-MB-231 breast = system: MDA-MB-231 breast
MALME-3M melanoma = system: MALME-3M melanoma
SF-539 CNS = system: SF-539 CNS
HS 578T breast = system: HS 578T breast
NCI-H226 lung = system: NCI-H226 lung
MOLT-4 leukemia = system: MOLT-4 leukemia
MDA-MB-435 = system: MDA-MB-435
T-47D breast = system: T-47D breast
OVCAR-3 ovarian = system: OVCAR-3 ovarian
ACHN renal = system: ACHN renal
SK-MEL-2 melanoma = system: SK-MEL-2 melanoma
SF-295 CNS = system: SF-295 CNS
UACC-257 melanoma = system: UACC-257 melanoma
BT-549 breast = system: BT-549 breast
OVCAR-4 ovarian = system: OVCAR-4 ovarian
CAKI-1 renal = system: CAKI-1 renal
DU-145 prostate = system: DU-145 prostate
NCI-H23 lung = system: NCI-H23 lung
UO-31 renal = system: UO-31 renal
SN12C renal = system: SN12C renal
HOP-62 NSCLC = system: HOP-62 NSCLC
NCI/ADR-RES ovarian = system: NCI/ADR-RES ovarian
COLO 205 colon = system: COLO 205 colon
RXF 393 renal = system: RXF 393 renal
HT29 colon = system: HT29 colon
UACC-62 melanoma = system: UACC-62 melanoma
KM12 colon = system: KM12 colon
HCT-15 colon = system: HCT-15 colon
OVCAR-5 ovarian = system: OVCAR-5 ovarian
SK-MEL-28 melanoma = system: SK-MEL-28 melanoma
HCT-116 colon = system: HCT-116 colon
U251 CNS = system: U251 CNS
IGROV1 ovarian = system: IGROV1 ovarian
786-0 renal = system: 786-0 renal
SF-268 CNS = system: SF-268 CNS
HCC-2998 colon = system: HCC-2998 colon
HOP-92 NSCLC = system: HOP-92 NSCLC
SK-OV-3 ovarian = system: SK-OV-3 ovarian
OVCAR-8 ovarian = system: OVCAR-8 ovarian
A549 NSCLC = system: A549 NSCLC
NCI-H460 lung = system: NCI-H460 lung
SNB-75 CNS = system: SNB-75 CNS
TK-10 renal = system: TK-10 renal
MCF7 breast = system: MCF7 breast
NCI-H522 lung = system: NCI-H522 lung
SK-MEL-5 melanoma = system: SK-MEL-5 melanoma

**Q.** With `COc1ccc(-c2nc(N3CCCC3)no2)cc1` as the compound, how does the TGI (CCRF-CEM leukemia) read?
**A.** > 71.5 µM

**Q.** What about the TGI (EKVX NSCLC) of the same compound?
**A.** > 100 µM

**Q.** What about the TGI (SW-620 colon) of the same compound?
**A.** > 100 µM

**Q.** And the TGI (SNB-19 CNS)?
**A.** > 100 µM

**Q.** And the TGI (MDA-N)?
**A.** > 100 µM

**Q.** And the TGI (RPMI-8226 leukemia)?
**A.** > 100 µM

**Q.** What about the TGI (A498 renal) of the same compound?
**A.** > 100 µM

**Q.** And the TGI (M14 melanoma)?
**A.** > 100 µM

**Q.** What about the TGI (LOX IMVI melanoma) of the same compound?
**A.** > 100 µM

**Q.** And the TGI (PC-3 prostate)?
**A.** > 100 µM

**Q.** And the TGI (HL-60(TB) leukemia)?
**A.** > 100 µM

**Q.** What about the TGI (K-562 leukemia) of the same compound?
**A.** > 100 µM

**Q.** And the TGI (MDA-MB-231 breast)?
**A.** > 100 µM

**Q.** What about the TGI (MALME-3M melanoma) of the same compound?
**A.** > 100 µM

**Q.** And the TGI (SF-539 CNS)?
**A.** > 100 µM

**Q.** What about the TGI (HS 578T breast) of the same compound?
**A.** > 100 µM

**Q.** What about the TGI (NCI-H226 lung) of the same compound?
**A.** > 100 µM

**Q.** And the TGI (MOLT-4 leukemia)?
**A.** > 100 µM

**Q.** And the TGI (MDA-MB-435)?
**A.** > 100 µM

**Q.** And the TGI (T-47D breast)?
**A.** > 100 µM

**Q.** What about the TGI (OVCAR-3 ovarian) of the same compound?
**A.** > 100 µM

**Q.** And the TGI (ACHN renal)?
**A.** > 75 µM

**Q.** What about the TGI (SK-MEL-2 melanoma) of the same compound?
**A.** > 100 µM

**Q.** And the TGI (SF-295 CNS)?
**A.** > 100 µM

**Q.** And the TGI (UACC-257 melanoma)?
**A.** > 100 µM

**Q.** What about the TGI (BT-549 breast) of the same compound?
**A.** > 100 µM

**Q.** What about the TGI (OVCAR-4 ovarian) of the same compound?
**A.** > 100 µM

**Q.** What about the TGI (CAKI-1 renal) of the same compound?
**A.** > 100 µM

**Q.** And the TGI (DU-145 prostate)?
**A.** > 100 µM

**Q.** What about the TGI (NCI-H23 lung) of the same compound?
**A.** > 100 µM

**Q.** And the TGI (UO-31 renal)?
**A.** > 100 µM

**Q.** And the TGI (SN12C renal)?
**A.** > 100 µM

**Q.** What about the TGI (HOP-62 NSCLC) of the same compound?
**A.** > 100 µM

**Q.** What about the TGI (NCI/ADR-RES ovarian) of the same compound?
**A.** > 100 µM

**Q.** What about the TGI (COLO 205 colon) of the same compound?
**A.** > 100 µM

**Q.** And the TGI (RXF 393 renal)?
**A.** > 72.4 µM

**Q.** And the TGI (HT29 colon)?
**A.** > 100 µM

**Q.** And the TGI (UACC-62 melanoma)?
**A.** > 100 µM

**Q.** And the TGI (KM12 colon)?
**A.** > 100 µM

**Q.** What about the TGI (HCT-15 colon) of the same compound?
**A.** > 100 µM

**Q.** And the TGI (OVCAR-5 ovarian)?
**A.** > 100 µM

**Q.** And the TGI (SK-MEL-28 melanoma)?
**A.** > 100 µM

**Q.** And the TGI (HCT-116 colon)?
**A.** > 100 µM

**Q.** What about the TGI (U251 CNS) of the same compound?
**A.** > 100 µM

**Q.** What about the TGI (IGROV1 ovarian) of the same compound?
**A.** > 100 µM

**Q.** What about the TGI (786-0 renal) of the same compound?
**A.** > 100 µM

**Q.** And the TGI (SF-268 CNS)?
**A.** > 100 µM

**Q.** What about the TGI (HCC-2998 colon) of the same compound?
**A.** > 100 µM

**Q.** What about the TGI (HOP-92 NSCLC) of the same compound?
**A.** > 94 µM

**Q.** What about the TGI (SK-OV-3 ovarian) of the same compound?
**A.** > 100 µM

**Q.** What about the TGI (OVCAR-8 ovarian) of the same compound?
**A.** > 100 µM

**Q.** What about the TGI (A549 NSCLC) of the same compound?
**A.** > 100 µM

**Q.** What about the TGI (NCI-H460 lung) of the same compound?
**A.** > 100 µM

**Q.** And the TGI (SNB-75 CNS)?
**A.** > 94.8 µM

**Q.** What about the TGI (TK-10 renal) of the same compound?
**A.** > 100 µM

**Q.** And the TGI (MCF7 breast)?
**A.** > 100 µM

**Q.** What about the TGI (NCI-H522 lung) of the same compound?
**A.** > 94.6 µM

**Q.** And the TGI (SK-MEL-5 melanoma)?
**A.** > 100 µM

**Q.** Which results are given for `CN(C)c1ccc(/C=C(\NC(=O)c2ccccc2)C(=O)Nc2ccccc2C(=O)NCc2ccccc2)cc1`?
**A.** TGI (CCRF-CEM leukemia): > 100 µM; TGI (EKVX NSCLC): > 100 µM; TGI (SW-620 colon): > 100 µM; TGI (SNB-19 CNS): > 100 µM; TGI (MDA-N): > 100 µM; TGI (RPMI-8226 leukemia): > 100 µM; TGI (A498 renal): > 100 µM; TGI (M14 melanoma): > 100 µM; TGI (LOX IMVI melanoma): > 100 µM; TGI (PC-3 prostate): > 100 µM; TGI (HL-60(TB) leukemia): > 100 µM; TGI (K-562 leukemia): > 100 µM; TGI (MDA-MB-231 breast): > 100 µM; TGI (MALME-3M melanoma): > 100 µM; TGI (SF-539 CNS): > 100 µM; TGI (HS 578T breast): > 100 µM; TGI (NCI-H226 lung): > 100 µM; TGI (MOLT-4 leukemia): > 100 µM; TGI (MDA-MB-435): > 100 µM; TGI (T-47D breast): > 100 µM; TGI (OVCAR-3 ovarian): > 100 µM; TGI (ACHN renal): > 100 µM; TGI (SK-MEL-2 melanoma): > 100 µM; TGI (SF-295 CNS): > 100 µM; TGI (UACC-257 melanoma): > 100 µM; TGI (BT-549 breast): > 100 µM; TGI (OVCAR-4 ovarian): > 100 µM; TGI (CAKI-1 renal): > 100 µM; TGI (DU-145 prostate): > 100 µM; TGI (NCI-H23 lung): > 100 µM; TGI (UO-31 renal): > 100 µM; TGI (SN12C renal): > 100 µM; TGI (HOP-62 NSCLC): > 100 µM; TGI (NCI/ADR-RES ovarian): > 100 µM; TGI (COLO 205 colon): > 100 µM; TGI (RXF 393 renal): > 100 µM; TGI (HT29 colon): > 100 µM; TGI (UACC-62 melanoma): > 100 µM; TGI (KM12 colon): > 100 µM; TGI (HCT-15 colon): > 100 µM; TGI (OVCAR-5 ovarian): > 100 µM; TGI (SK-MEL-28 melanoma): > 100 µM; TGI (HCT-116 colon): > 100 µM; TGI (U251 CNS): > 100 µM; TGI (IGROV1 ovarian): > 100 µM; TGI (786-0 renal): > 100 µM; TGI (SF-268 CNS): > 100 µM; TGI (HCC-2998 colon): > 100 µM; TGI (HOP-92 NSCLC): > 100 µM; TGI (SK-OV-3 ovarian): > 100 µM; TGI (OVCAR-8 ovarian): > 100 µM; TGI (A549 NSCLC): > 100 µM; TGI (NCI-H460 lung): > 100 µM; TGI (SNB-75 CNS): > 100 µM; TGI (TK-10 renal): > 100 µM; TGI (MCF7 breast): > 100 µM; TGI (NCI-H522 lung): 93.3 µM; TGI (SK-MEL-5 melanoma): > 100 µM
